Laboratory results published in US5679671A, “Amino acid derivative” (Eisai Co., Ltd., priority 1993, dated 1997).

Key:
ACE = biological target: T1, ACE (Rattus norvegicus, UniProt P47820); experiment: ACE inhibition activity (Experiment D-1); format: biochemical; conditions: rat lung membrane fraction, pH 8.3
T1 construct: membrane fraction prepared from rat lung; from tissue; host or cells: rat lung, membrane fraction (method of Wu-Wong et al.)
T1 sequence (P47820 36-1313): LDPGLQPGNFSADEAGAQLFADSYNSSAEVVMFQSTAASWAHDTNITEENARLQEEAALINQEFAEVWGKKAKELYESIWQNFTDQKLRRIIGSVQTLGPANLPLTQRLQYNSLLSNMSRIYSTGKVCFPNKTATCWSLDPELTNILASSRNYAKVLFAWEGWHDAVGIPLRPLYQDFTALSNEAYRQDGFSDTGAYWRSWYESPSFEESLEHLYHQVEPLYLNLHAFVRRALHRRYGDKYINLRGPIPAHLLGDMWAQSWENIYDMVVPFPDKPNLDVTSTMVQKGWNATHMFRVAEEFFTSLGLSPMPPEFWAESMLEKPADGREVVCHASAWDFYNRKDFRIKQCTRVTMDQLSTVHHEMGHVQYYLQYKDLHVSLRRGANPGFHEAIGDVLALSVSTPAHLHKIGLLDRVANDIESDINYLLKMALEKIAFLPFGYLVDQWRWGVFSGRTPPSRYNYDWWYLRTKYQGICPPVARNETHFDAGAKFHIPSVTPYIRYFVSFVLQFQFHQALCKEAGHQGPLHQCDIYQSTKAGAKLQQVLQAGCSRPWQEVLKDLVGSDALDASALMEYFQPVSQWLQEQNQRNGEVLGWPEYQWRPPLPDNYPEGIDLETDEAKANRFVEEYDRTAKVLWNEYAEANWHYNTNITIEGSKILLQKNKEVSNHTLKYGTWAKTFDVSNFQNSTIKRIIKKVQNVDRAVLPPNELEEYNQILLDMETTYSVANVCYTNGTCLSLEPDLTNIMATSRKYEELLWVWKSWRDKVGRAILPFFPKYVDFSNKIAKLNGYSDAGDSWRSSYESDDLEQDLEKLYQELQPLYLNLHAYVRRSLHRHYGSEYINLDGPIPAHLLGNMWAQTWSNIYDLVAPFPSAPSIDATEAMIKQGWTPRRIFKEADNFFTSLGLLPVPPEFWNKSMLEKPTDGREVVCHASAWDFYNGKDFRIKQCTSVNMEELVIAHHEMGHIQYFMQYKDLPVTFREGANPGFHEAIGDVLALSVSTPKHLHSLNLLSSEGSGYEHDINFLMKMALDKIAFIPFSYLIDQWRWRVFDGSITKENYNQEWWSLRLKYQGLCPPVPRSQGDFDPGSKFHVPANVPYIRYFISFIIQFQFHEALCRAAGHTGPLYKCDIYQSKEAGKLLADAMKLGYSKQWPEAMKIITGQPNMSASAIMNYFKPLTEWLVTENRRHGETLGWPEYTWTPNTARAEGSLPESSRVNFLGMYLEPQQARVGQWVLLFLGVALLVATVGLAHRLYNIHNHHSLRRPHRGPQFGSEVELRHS
Description: As a source of the enzyme ACE, a membrane fraction prepared from rat lung in accordance with the method of Wu-Wong et al. (Characterization of Endthelin Converting Enzyme in Rat Lung., Junshyum R. Wu-Wong, Gerald, P. Budzik, Edward M. Devine and Terry J. Opgenorth, Biochem. Biophys. Res. Commun., 1990, 171, 1291-1296.) was used. The ACE activity was determined with the use of a modification (modified to a borate buffer, pH 8.3) of the method of Cushman and Cheung (Spectrophotometric Assay and Properties of the Angiotensin-Converting Enzyme of Rabbit Lung., Cushman D. W. and Cheung H. S., 1971, 20, 1637-1648.). Now the procedure will be briefly described.
In the presence of ACE, the hippurate liberated from hippuryl-histidine-leucine (Hippuryl-His-Leu (Peptide Institute Inc., Japan)) was extracted with ethyl acetate and then the absorbance was measured at a wavelength of 228 nm.
(§1) To determine the NEP inhibition activity and the ACE inhibition activity, the inhibitor was added to the assay systems of both enzyme activities as described above in such a manner as to give the final concentrations of 1, 3, 10, 30, 100, 300 and 1000 nM and inhibition curves were prepared. Then the concentration at which 50% inhibition was achieved was taken as IC50.

NEP = biological target: T2, NEP (Rattus norvegicus, UniProt P07861); experiment: NEP inhibition activity (Experiment D-1); format: biochemical; set-up: membrane fraction prepared from rat renal cortex; from tissue; host or cells: rat renal cortex, membrane fraction (method of Booth and Kenny); conditions: rat renal cortex membrane fraction
T2 sequence (P07861 1-750): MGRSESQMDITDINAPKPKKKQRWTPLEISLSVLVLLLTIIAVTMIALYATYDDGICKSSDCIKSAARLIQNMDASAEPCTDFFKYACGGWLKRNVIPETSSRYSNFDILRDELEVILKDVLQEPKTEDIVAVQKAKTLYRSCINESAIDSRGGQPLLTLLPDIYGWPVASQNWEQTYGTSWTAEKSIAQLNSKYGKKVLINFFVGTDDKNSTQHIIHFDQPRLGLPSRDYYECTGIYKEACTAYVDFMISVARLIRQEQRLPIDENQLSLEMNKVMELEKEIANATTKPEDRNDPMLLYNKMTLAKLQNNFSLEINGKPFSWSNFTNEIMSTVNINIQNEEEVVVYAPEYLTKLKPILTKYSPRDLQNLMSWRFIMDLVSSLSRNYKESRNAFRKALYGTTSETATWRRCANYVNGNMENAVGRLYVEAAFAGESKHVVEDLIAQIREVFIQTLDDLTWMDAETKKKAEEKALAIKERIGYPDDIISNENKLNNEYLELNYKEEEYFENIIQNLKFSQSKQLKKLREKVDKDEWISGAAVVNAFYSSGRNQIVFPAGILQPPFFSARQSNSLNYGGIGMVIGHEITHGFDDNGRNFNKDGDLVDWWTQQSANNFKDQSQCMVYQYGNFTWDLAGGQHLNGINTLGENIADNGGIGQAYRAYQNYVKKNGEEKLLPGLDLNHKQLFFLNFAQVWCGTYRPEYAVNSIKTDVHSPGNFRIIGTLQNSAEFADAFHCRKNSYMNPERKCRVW
Description: As a source of the enzyme NEP, a membrane fraction prepared from rat renal cortex in accordance with the method of Booth and Kenny (A Rapid Method for the Purification of Microvilli from Rabbit Kidney., Andrew G. Booth and A. John Kenny, Biochem. j., 1974, 142, 575-581.) was employed. The NEP activity was determined in accordance with the method of Orlowsky and Wilk (Purification and Specificity of a Membrane-Bound Metalloendpeptidase from Bovine Pituitaries., Marian Orlowsky and Shrwin Wilk, Biochemistry, 1981, 20, 4942-4950.). Now the procedure will be briefly described.
As a substrate, benzoyl-glycine-arginine-arginine-2-naphthylamide benzoyl-Gly-Arg-Arg-2-naphthylamide (Nova Biochem, Switzerland)) was used. In the presence of an NEP enzyme preparation and excessive leucine aminopeptidase (sigma chemical Co., U.S.A.), the liberated naphthylamine was made to undergo color development with first garnet (Sigma chemical Co., U.S.A.), followed by the measurement of the absorbance at a wavelength of 540 nm.
as §1

SHR [1] = experiment: Hypotensive effect on SHR, i.v. (Experiment D-2); format: in vivo, Spontaneously hypertensive rats
Description: (§2) Spontaneously hypertensive rats (SHR) aged 15 to 20 weeks were anesthetized by intraperitoneally administering thiopental sodium (50 mg/kg). The depth of anesthesia was maintained by optionally effecting supplemental anesthesia (5 mg/kg, i.v.). Catheters were inserted into the left common carotid artery and the vein respectively for the measurement of blood pressure and for the administration of a medicament. The cardiac rate was counted by using blood pressure as a trigger.
When the blood pressure became stable after the completion of the operation, the comparative compound or the compound of Example 9 was intravenously administered in doses of 0.1, 0.3 and 1.0 mg/kg and changes in blood pressure and cardiac rate were measured. Following the administration, the measurement was effected for 10 minutes in the cases of 0.1 and 0.3 mg/kg or for 30 minutes in the case of 1.0 mg/kg.

SHR [2] = experiment: Hypotensive effect on SHR, i.v. (Experiment C-5); format: in vivo, rat (SHR)
Description: as §2, with “SHRs” for “Spontaneously hypertensive rats (SHR)”
When the blood pressure became stable after the completion of the operation, the comparative compound was intravenously administered in 0.1, 0.3 and 1.0 mg/kg and changes in blood pressure and cardiac rate were measured. Following the administration, the measurement was effected for 10 minutes in the cases of 0.1 and 0.3 mg/kg or for 30 minutes in the case of 1.0 mg/kg. The invention compound was intravenously administered in 0.03, 0.1 and 0.3 mg/kg and the measurement was effected for 10 minutes after the administration in the cases of 0.03 and 0.1 mg/kg or for 30 minutes after the administration in the case of 0.3 mg/kg.

SHR [3] = experiment: Hypotensive effect on SHR through intravenous administration (separate experiment); format: in vivo; conditions: Rattus norvegicus, read-out: dose to decrease the blood pressure by 10%
From the text: In addition to the above-mentioned Pharmacological Experiment Examples, an experiment was separately effected with the use of SHR for examining hypotensive effects through intravenous administration. As the result, in the comparison of the conventionally known double inhibitors (1) [S-(R*,R*)]-2,3,4,5-tetrahydro-3-[(2-mercapto-[…])amino]-2-oxo-1H-benzazepine-1-acetic acid and (2) [S-(R*,R*)]-2,3,4,5-tetrahydro-3-[(2-mercapto-1-oxo-4-methylpentyl)amino]- 2-oxo-1H-benzazepine-1-acetic acid with the compounds of the present invention, Example C-8 and Example C-10, the inhibitors (1) and (2) should be administered each in a dose of 1.0 mg/kg to decrease the blood pressure by 10%, whereas the administration of 0.03 to 0.1 mg/kg of the compound of Example C-8 and the administration of 0.1 to 0.3 mg/kg of the compound of Example C-10 each achieved the same effect.

[4] = within 30 minutes after i.v. administration

Structure (SMILES) | IC50 (ACE) [nM] | IC50 (NEP) [nM] | cardiac rate (SHR [1]; SHR, i.v.) | ED (10% decrease in blood pressure) (SHR [3]) [mg/kg] | also measured
COc1ccc(CC(S)C(=O)N[C@H]2Cc3ccccc3[C@H]3SC[C@H](C(=O)O)N3C2=O)cc1 (stereo partly drawn) [Comp. cpd.*^1] | 11 | 14 | – | – | –
CS(=O)(=O)Nc1ccc2c(c1)[C@H]1CCC[C@@H](C(=O)O)N1C(=O)[C@@H](NC(=O)[C@@H](S)Cc1ccccc1)C2 [Example D-5, [4S-[4α,7α(R*),12bβ]]-11-methylsulfonylamino7-[[(S)-2-mercapto-3-phenyl-1-oxopropyl)amino-6-oxo-1,2,3,4,6,7,8,12b-octahydropyrido-[2,1-a][2]benzazepine-4-carboxylic acid] | 17 | 33 | – | – | –
COc1ccc(C[C@H](S)C(=O)N[C@H]2Cc3ccc(NS(C)(=O)=O)cc3[C@H]3CCC[C@@H](C(=O)O)N3C2=O)cc1 [Example D-6, [4S-[4α,7α(R*),12bβ]]-11-methylsulfonylamino-7-[[(S)-2-mercapto-3-(4-methoxyphenyl)-1-oxopropyl]amino-6-oxo-1,2,3,4,6,7,8,12b-octahydropyrido-[2,1-a][2]benzazepine-4-carboxylic acid] | 12 | 38 | tended to gradually decrease | – | decrease in blood pressure / hypotensive effect (SHR [1]; 1.0 mg/kg i.v.): 25%; hypotensive effect on SHR relative to the comparative compound (SHR [1]; SHR, i.v.): about three times that of the comparative compound
O=C(N[C@H]1Cc2ccccc2[C@H]2CCC[C@@H](C(=O)O)N2C1=O)[C@@H](S)Cc1ccccc1 [comparative compound, reference compound] | – | – | tended to gradually decrease | – | cardiac rate (SHR [2]; SHR, i.v.): tended to gradually decrease; return of blood pressure (SHR [2]; [4]): did not return within 30 minutes; return of blood pressure (SHR [1]; [4]): did not return within 30 minutes
O=C(O)CN1C(=O)[C@@H](NC(=O)[C@@H](S)Cc2ccccc2)CCc2ccccc21 [inhibitor (1)] | – | – | – | 1 | –
CC(C)C[C@H](S)C(=O)N[C@H]1CCc2ccccc2N(CC(=O)O)C1=O [inhibitor (2), [S-(R*,R*)]-2,3,4,5-tetrahydro-3-[(2-mercapto-1-oxo-4-methylpentyl)amino]-2-oxo-1H-benzazepine-1-acetic acid] | – | – | – | 1 | –
